Series [1] deals with Nereis virens (polychaete worms). Put plainly: Bioactivity assay on polychaete worms. Format: in vivo. On the procedure: To determine if synthetic Tv1 is biologically active, the peptide was injected into polychaete worms, which are the natural prey of terebrid snails. […] Inhibition of nicotinic receptors at the neuromuscular junction can result in paralysis.
Nereis virens (polychaete worms) (less than 3.5 g) were maintained at 4° C. in salt water prior to injection. Worms were laid on a Styrofoam block and injected with an insulin syringe. A modified needle cap was used to maintain a consistent 1.5 mm depth of needle puncture. Worms were injected between the 5th and 7th segments on the ventral anterior end with the aim of targeting the ventral nerve cord. Control worms were injected with 12 μl of 0.9% normal saline solution (NSS). Lyopholized samples of Tv1 toxin were resuspended in NSS and diluted to a concentration of 20 μM which was confirmed using a ThermoScientific Nanodrop 2000c spectrophotometer. At least three worms were used for each trial—one saline control and two injected with Tv1 toxin for a total of three trials. After injection, the worms were transferred to side-by-side containers filled with room temperature salt water. The worm movements were then recorded by video in order to evaluate the effects of the toxin over a period of at least 3.5 hours. Varying temperature elicits different phenotypic responses from N. virens: water at 4° C. has an anesthetizing effect, while room temperature prompts a vigorous response. Taking the worms from 4° C. water and immersing them in room temperature water (25° C.) immediately after injection stimulates an active response from the worms, making it easier to recognize paralytic (or partially paralytic) effects induced by a novel toxin in the first minutes after injection. Worms were observed every other day for two weeks after injection. […] Each video was analyzed and annotated […] by each observer. Observations for each worm began at the time of injection. The numerical results of the two independent viewings were averaged together if results were similar, if two viewers disagreed, a third observer was employed to review the disputed section of video. Results of relative activity vs. time were plotted to quantify the phenotypic effects of the toxin and saline injection on N. virens.

Series [2] has as its system cell lines IMEA7 and BNL.CL2. Put plainly: In vitro cell viability, immunoblotting and wound healing assays on liver cancer cells. Format: cell-based. The method, then:
A novel teretoxin, Tv1 (TR(I/L)[…] (SEQ ID NO: 1)) from a terebrid snail, terebrid variegata was structurally identified and found to be biologically active. […] Tv1 was analyzed in cell viability, immunoblotting, and wound healing assays to characterize its function on liver cancer cells. […] Structural characterization of Terebra variegata peptide toxin Tv1 was accomplished using a total venom sample of 4 ng, an amount that would previously make characterization of venom components almost impossible.
In general terms: In western blotting, separated proteins are transferred to a membrane and probed.

The subject of a further series is BNL.1MEA.7.R.1 cells. Put plainly: Mouse tumor study: BNL.1MEA.7.R.1 cells injected into right leg, intraperitoneal Tv1. Type of series: in vivo, Balb/c female mice. The method, then: Balb/c female mice (20-35 g) were used for mouse studies. Animals were maintained on standard animal diet, in a controlled room (22±1° C. @ 35-50% RH) for a week prior to experiments. Animals were randomly divided into three groups: negative control (only PBS), high-dose and low-dose ZCD groups. Each group had five mice under sterile condition. On the day nine, the BNL.1MEA.7.R.1 cells (5 million) were injected into the right leg of each animal and allowed the tumors to grow. After two weeks the animals were checked for tumor growth and the sizes of tumors were recorded using calipers. The treatment was started after finding tumors in all groups.
The concentration of the Tv1 formulations was prepared at 0.08 mg/kg body weight (low dose) and 0.80 mg/kg body weight (high dose) for the intraperitoneal injections. Control group of animals received PBS. The drug administrations were continued for seven days and then further after a five day interval treatment was continued for another eight days and tumor sizes were measured every day.
In the high-dose group, the tumor volumes were 286.08±39.9 mm^3 at the beginning of the treatment and were 434.28±286 mm^3 after the last day which is an increase of only 52%.

Bridge positions count the residues as written; N and C are the ends. Ends that are not written are not given here.

For “TRICCGCYWNGSKDVCSQSCC (disulfide 7-16, 4-20, 5-21; listed as Terebra variegata) [Tv1 (Ile), Tv1 peptide with Ile at the third position]”, the “phenotypic effect of injection into worms” value in series [1] (injections of 20 μM) was “partial paralysis”.

As for “TR(I/L)CCGCYWNGSKDVCSQSCC [Tv1, novel teretoxin from terebrid snail Terebra variegata, chemically synthesized; Ile or Leu at position 3]”, the “selectivity tumor cell versus normal cells in vitro” value in series [2] (cell lines IMEA7 and BNL.CL2) was “selectively targets tumor cell versus normal cells”. In addition, the “death of normal versus cancer cells compared to sorafenib and doxorubicin” value in series [2] (cell viability, immunoblotting, wound healing assays) is “prevented the death of normal versus cancer cells at high instance”. Moreover, the “effect on growth of tumor” value in the series with BNL.1MEA.7.R.1 cells (both low and high doses) is listed as “effective in significantly decreasing the growth of tumor”. Further, the “tumor volume after the last day” value with BNL.1MEA.7.R.1 cells (high dose 0.80 mg/kg body weight, intraperitoneal, after the last day) was 434.28±286 mm^3. In the series with BNL.1MEA.7.R.1 cells (high dose 0.80 mg/kg body weight, intraperitoneal, beginning of treatment), the “tumor volume at the beginning of the treatment” value amounted to 286.08±39.9 mm^3. In the series with BNL.1MEA.7.R.1 cells (high dose 0.80 mg/kg, beginning to last day (negative control 418%)), the “increase of tumor volume” value stood at 52%. Further, the “average tumor volume at the beginning of the treatment” value with BNL.1MEA.7.R.1 cells (low dose 0.08 mg/kg body weight, intraperitoneal, day one) is given as 180±36.74 mm^3. In addition, the “average tumor volume at the end of treatment” value in the series on BNL.1MEA.7.R.1 cells (low dose 0.08 mg/kg body weight, intraperitoneal, end of treatment) is given as 485±175.07 mm^3. Also, the “increase of average tumor volume” value in the series with BNL.1MEA.7.R.1 cells (low dose 0.08 mg/kg, day one to end of treatment (negative control 418%)) was found to be 170%. For the same substance, in the series with BNL.1MEA.7.R.1 cells (mice models expressing IMEA7 tumor cells subcutaneously), the “selectivity tumor cell versus normal cells in vivo” value is on record as “selectively targets tumor cell versus normal cells”. Further, in the series on BNL.1MEA.7.R.1 cells (monitored throughout treatment), the “body weights throughout the treatment period” value is listed as “not significantly changed”. In addition, in series [1] (20 μM injected, activity at 0), the “% Time spent, activity at 0” value is listed as 0.995%. Further, the “% Time spent, activity between 0 and 1” value in series [1] (20 μM injected, activity between 0 and 1) is 74.47%. Further, in series [1] (20 μM injected, activity between 1 and 2), the “% Time spent, activity between 1 and 2” value stood at 19.98%. Besides, the “% Time spent, activity between 2 and 3” value in series [1] (20 μM injected, activity between 2 and 3) came to 4.55%.

Values taken from US9610319B2, “Method of treating cancer” (Research Foundation of the City University of New York, priority 2014, dated 2017).
